Key:
[1] = tested on: polypeptide consisting of the amino acid sequence shown in SEQ ID NO: 3 (carbonyl reductase), cell-free extract of E. coli HB101 (pNTOM3); assay: Substrate specificity of polypeptide produced by transformant E. coli HB101 (pNTOM3); format: biochemical, Ogataea minuta var. minuta NBRC0975; conditions: 1 mM substrate, 0.25 mM NADPH, pH 6.5, 30° C., 1 min; relative to activity on CBPB as 100%
Experimental: (§1) In 100 mM phosphate buffer (pH 6.5) containing 0.33% (v/v) dimethyl sulfoxide were dissolved a carbonyl compound to be a substrate to a final concentration of 1 mM, and a coenzyme NADPH to a final concentration of 0.25 mM, respectively. Thereto was added a cell-free extract of E. coli HB101 (pNTOM4) or E. coli HB101 (pNTOM3) prepared in Example 7, and the mixture was reacted at 30° C. for 1 min. The reduction activity on each carbonyl compound was calculated from the rate of decrease in the absorbance of the reaction mixture at a wavelength of 340 nm, and shown in Table 2 as a value relative to the activity on (3S)-1-chloro-3-tert-butoxycarbonylamino-4-phenyl-2-butanone as 100%.

[2] = tested on: polypeptide consisting of the amino acid sequence shown in SEQ ID NO: 4 (carbonyl reductase), cell-free extract of E. coli HB101 (pNTOM4); assay: Substrate specificity of polypeptide produced by transformant E. coli HB101 (pNTOM4); format: biochemical, Ogataea minuta var. minuta NBRC0975; conditions: 1 mM substrate, 0.25 mM NADPH, pH 6.5, 30° C., 1 min; relative to activity on CBPB as 100%
Experimental: as §1

CCOC(=O)CC(=O)CN=[N+]=[N-] [ethyl 4-azideacetoacetate]
relative activity (%) E. coli HB101 (pNTOM3) [1]: 659%
relative activity (%) E. coli HB101 (pNTOM4) [2]: 1%
